Assay [1] addresses T1, pufferfish Tas1r1/Tas1r3LBD ("wild-type", free-cysteine eliminated) (Takifugu rubripes, UniProt Q2MHJ8+Q2MHK1, Q2MHJ8:C238S/Q2MHK1:C242S).
T1 construct: Tas1r1 Met1-Ser501 with C-terminal PA tag, Tas1r3 Met1-Ser496 with C-terminal FLAG tag; Endo H treated for crystals
The experiment in a line: differential scanning fluorimetry. The class given is binding. To be noted: read-out: Kd-app. An excerpt:
(§1) differential scanning fluorimetry on pufferfish Tas1r1/Tas1r3LBD ("wild-type", free-cysteine eliminated)

The target in assay [2] is T2, pufferfish Tas1r1/Tas1r3LBD ("wild-type", free-cysteine eliminated) (Takifugu rubripes, UniProt Q2MHJ8+Q2MHK1, Q2MHJ8:C238S/Q2MHK1:C242S/Q2MHK1:Y385F).
T2 construct: Tas1r1 Met1-Ser501 with C-terminal PA tag, Tas1r3 Met1-Ser496 with C-terminal FLAG tag; Endo H treated for crystals
The experiment in a line: differential scanning fluorimetry. The assay is classed as binding. To be noted: read-out: Kd-app.
Description: as §1

In assay [3] the target is T3, pufferfish Tas1r1/Tas1r3LBD ("wild-type", free-cysteine eliminated) (Takifugu rubripes, UniProt Q2MHJ8+Q2MHK1, Q2MHJ8:C238S/Q2MHK1:C242S/Q2MHK1:R469V).
T3 construct: Tas1r1 Met1-Ser501 with C-terminal PA tag, Tas1r3 Met1-Ser496 with C-terminal FLAG tag; Endo H treated for crystals
The experiment in a line: differential scanning fluorimetry. The class given is binding. To be noted: read-out: Kd-app.
Description: as §1
(In general: DSF heats the sample and reads unfolding from a dye or from intrinsic fluorescence.)

In assay [4] the target is T4, pufferfish Tas1r1/Tas1r3LBD ("wild-type", free-cysteine eliminated) (Takifugu rubripes, UniProt Q2MHJ8+Q2MHK1, Q2MHJ8:C238S/Q2MHK1:C242S/Q2MHK1:E174A).
T4 construct: Tas1r1 Met1-Ser501 with C-terminal PA tag, Tas1r3 Met1-Ser496 with C-terminal FLAG tag; Endo H treated for crystals
In words: differential scanning fluorimetry. The assay is classed as binding. To be noted: read-out: Kd-app.
Description: as §1

In assay [5] the target is T5, pufferfish Tas1r1/Tas1r3LBD ("wild-type", free-cysteine eliminated) (Takifugu rubripes, UniProt Q2MHJ8+Q2MHK1, Q2MHJ8:C238S/Q2MHK1:C242S/Q2MHK1:D306A).
T5 construct: Tas1r1 Met1-Ser501 with C-terminal PA tag, Tas1r3 Met1-Ser496 with C-terminal FLAG tag; Endo H treated for crystals
The experiment in a line: differential scanning fluorimetry. The class given is binding. To be noted: read-out: Kd-app.
Description: as §1

Assay [6] concerns the target T6, full-length pufferfish Tas1r1/Tas1r3 (Takifugu rubripes, UniProt Q2MHJ8+Q2MHK1).
T6 construct: full-length heterodimer, transiently expressed in HEK293T with rat G15i2 and mt-apoclytin-II
T6 sequence (Q2MHK1 25-845): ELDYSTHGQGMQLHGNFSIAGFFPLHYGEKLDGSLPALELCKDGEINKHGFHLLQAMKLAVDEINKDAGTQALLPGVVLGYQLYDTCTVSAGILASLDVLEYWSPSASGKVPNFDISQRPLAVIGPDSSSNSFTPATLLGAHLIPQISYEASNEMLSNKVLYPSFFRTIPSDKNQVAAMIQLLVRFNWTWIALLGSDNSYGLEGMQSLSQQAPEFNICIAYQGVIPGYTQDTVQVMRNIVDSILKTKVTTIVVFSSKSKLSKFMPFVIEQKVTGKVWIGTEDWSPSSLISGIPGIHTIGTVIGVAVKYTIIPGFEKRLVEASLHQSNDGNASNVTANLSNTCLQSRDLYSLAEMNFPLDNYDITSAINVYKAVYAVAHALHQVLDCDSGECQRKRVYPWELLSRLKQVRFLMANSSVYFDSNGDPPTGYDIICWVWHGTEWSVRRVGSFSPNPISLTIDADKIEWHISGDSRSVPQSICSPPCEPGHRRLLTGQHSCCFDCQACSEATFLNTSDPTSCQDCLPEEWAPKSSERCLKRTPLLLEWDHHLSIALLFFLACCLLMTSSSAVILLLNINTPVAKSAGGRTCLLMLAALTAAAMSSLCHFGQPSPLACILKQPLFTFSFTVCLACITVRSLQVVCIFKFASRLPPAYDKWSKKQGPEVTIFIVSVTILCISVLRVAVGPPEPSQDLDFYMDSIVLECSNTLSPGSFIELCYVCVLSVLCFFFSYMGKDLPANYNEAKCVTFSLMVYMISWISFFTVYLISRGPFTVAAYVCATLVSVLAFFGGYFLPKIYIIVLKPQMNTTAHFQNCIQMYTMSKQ
T6 sequence (Q2MHJ8 20-853): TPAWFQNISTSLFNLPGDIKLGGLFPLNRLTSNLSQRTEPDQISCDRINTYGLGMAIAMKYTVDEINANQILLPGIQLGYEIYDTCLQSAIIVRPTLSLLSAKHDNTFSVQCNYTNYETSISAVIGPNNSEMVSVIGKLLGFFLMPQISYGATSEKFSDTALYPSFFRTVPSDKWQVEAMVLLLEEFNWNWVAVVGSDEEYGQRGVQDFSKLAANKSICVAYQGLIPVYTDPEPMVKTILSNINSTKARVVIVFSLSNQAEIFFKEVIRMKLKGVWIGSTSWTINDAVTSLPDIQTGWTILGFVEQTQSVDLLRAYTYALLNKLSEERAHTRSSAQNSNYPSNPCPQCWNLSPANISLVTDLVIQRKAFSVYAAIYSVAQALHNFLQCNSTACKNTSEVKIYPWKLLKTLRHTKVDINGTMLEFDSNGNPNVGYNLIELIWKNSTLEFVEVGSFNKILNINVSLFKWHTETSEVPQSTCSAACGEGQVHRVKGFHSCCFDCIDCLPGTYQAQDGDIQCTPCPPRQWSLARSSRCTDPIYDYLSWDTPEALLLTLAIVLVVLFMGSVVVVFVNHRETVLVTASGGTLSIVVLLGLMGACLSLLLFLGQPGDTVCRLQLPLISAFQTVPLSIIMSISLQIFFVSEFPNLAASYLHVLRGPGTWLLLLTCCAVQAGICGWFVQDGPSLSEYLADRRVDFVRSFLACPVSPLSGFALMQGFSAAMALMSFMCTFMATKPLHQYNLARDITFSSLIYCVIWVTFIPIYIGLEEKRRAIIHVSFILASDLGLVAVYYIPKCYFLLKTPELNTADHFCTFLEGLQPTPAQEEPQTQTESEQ
The experiment in a line: luminometric Ca2+ response (mt-clytin-II), HEK293T. The assay is classed as cell-based. To be noted: agonist.

Assay [7] deals with T1, pufferfish Tas1r1/Tas1r3LBD ("wild-type", free-cysteine eliminated). The experiment in a line: X-ray crystal structure; DSF. The assay is classed as binding. As to conditions: orthosteric site in both subunits.

For `CC(C)(N)C(=O)O` [2-methylalanine], the Kd in assay [1] turned out to be 1290 ± 140 µM.
In the case of `C[C@@H](N)C(=O)O` [D-alanine], the Kd in assay [2] stood at 1.98 ± 0.12 mM; in assay [1], 1440 ± 90 µM; in assay [3], 1.88 ± 0.14 mM; in assay [4] it was 1690 ± 460 µM; in assay [5], 3.14 ± 0.91 mM. Also, the “response at 50 mM” value in assay [6] was “D-alanine and D-phenylalanine demonstrated a relatively high extent of binding and evoked low”.
Turning to `N[C@H](Cc1ccccc1)C(=O)O` [D-phenylalanine], the “response at 50 mM” value in assay [6] is “D-alanine and D-phenylalanine demonstrated a relatively high extent of binding and evoked low”. In assay [7], the “X-ray crystal structure; DSF” value was “D-phenylalanine-bound Tas1r1/Tas1r3LBD structure also adopts a compact dimerization manner”.
Consider `C[C@H](N)C(=O)O` [L-alanine], for which the Kd in assay [2] stood at 0.186 ± 0.013 mM; in assay [1], 126 ± 7 µM; in assay [3] it was 0.203 ± 0.013 mM; in assay [4] it was 61.4 ± 17.7 µM; in assay [5], 0.0979 ± 0.0225 mM. Also, the “response at 50 mM” value in assay [6] was “The receptor bound and responded to a wide range of L-amino acids, including L-alanine”.
For `CN[C@@H](C)C(=O)O` [N-methyl-L-alanine], the Kd in assay [1] is 345 ± 8 µM.

These data come from doi:10.1101/2025.11.24.689453v1, “Structural basis of stereochemical promiscuity by an umami taste receptor ortholog, Tas1r1/Tas1r3 from pufferfish” (biorxiv, 2025).
